Results reported in the NIST ThermoML archive (doi:10.1021/je5003797).
Where “and” joins values, the source holds several entries; their conditions need not be identical. Equal values may be shown once.

Test: mn = molality of the nth substance listed, in mol/kg
Conditions: 298.15 K, 101 kPa, Liquid

NC=O [formamide] + O
Conditions	mass density
m1 = 0.4985	1000.74 kg/m3
m1 = 0.5096	1000.84 kg/m3
m1 = 0.5191	1000.9 kg/m3
m1 = 0.9969	1004.03 kg/m3
m1 = 1.081	1004.59 kg/m3
m1 = 1.085	1004.61 kg/m3
m1 = 1.499	1007.18 kg/m3 and 1007.2 kg/m3
m1 = 1.5	1007.19 kg/m3
m1 = 1.999	1010.19 kg/m3 and 1010.16 kg/m3
m1 = 2.007	1010.21 kg/m3
m1 = 2.48	1012.92 kg/m3
m1 = 2.488	1012.96 kg/m3
m1 = 2.502	1013.04 kg/m3
m1 = 2.994	1015.72 kg/m3
m1 = 3	1015.76 kg/m3
m1 = 3.002	1015.76 kg/m3
m1 = 3.476	1018.24 kg/m3
m1 = 3.502	1018.39 kg/m3
m1 = 3.535	1018.55 kg/m3
m1 = 3.999	1020.84 kg/m3
m1 = 4.044	1021.08 kg/m3
m1 = 4.137	1021.53 kg/m3
m1 = 4.49	1023.21 kg/m3
m1 = 4.502	1023.26 kg/m3
m1 = 4.505	1023.29 kg/m3
m1 = 5.002	1025.56 kg/m3
m1 = 5.012	1025.61 kg/m3
m1 = 5.067	1025.86 kg/m3
m1 = 5.49	1027.73 kg/m3
m1 = 5.547	1027.97 kg/m3
m1 = 5.575	1028.1 kg/m3
m1 = 5.973	1029.8 kg/m3
m1 = 6.008	1029.91 kg/m3
m1 = 6.01	1029.95 kg/m3
m1 = 6.497	1031.91 kg/m3
m1 = 6.503	1031.93 kg/m3
m1 = 6.51	1031.98 kg/m3
m1 = 6.99	1033.87 kg/m3
m1 = 7.004	1033.94 kg/m3
m1 = 7.056	1034.12 kg/m3
m1 = 7.468	1035.69 kg/m3
m1 = 7.481	1035.75 kg/m3
m1 = 7.493	1035.75 kg/m3
m1 = 7.99	1037.61 kg/m3
m1 = 8.002	1037.64 kg/m3
m1 = 8.037	1037.77 kg/m3
m1 = 8.468	1039.27 kg/m3
m1 = 8.506	1039.42 kg/m3
m1 = 8.522	1039.45 kg/m3
m1 = 8.947	1040.93 kg/m3
m1 = 8.99	1041.07 kg/m3
m1 = 9.032	1041.2 kg/m3
